# From patent publication US20100047227A1, “NOVEL ANTICANCER CATHEPSIN FORMULATIONS AND ANTICANCER AGENT FOR USE IN COMBINED ANTICANCER THERAPY” (priority 2006, published 2010)
# Square brackets hold non-standard residues; d marks the D form. Peptide text beside a SMILES is read from it. * marks the point of attachment. Sta = CC(C)C[C@H](N)[C@@H](O)CC(=O)O; Isovaleryl = CC(C)CC(=O)*; Cbz = O=C(OCc1ccccc1)*; CH2F = FC*
# How the values were obtained:
# Assay type in all cases: cell-based
# [1] = test system: human prostate cancer ALVA-41 cells; test: survival rate of cells (Cell Counting Kit-8), ALVA-41 cells; conditions: for number of living cells: ALVA-41 cells, 20 hours
# Experimental: The survival rate of cells was measured by Cell Counting Kit-8 in accordance with a manufacturer's manual. The method will be described briefly as follows. A 96-well (each 100 μl) plate was inoculated with cells (1×10^4 cells) and incubated for 24 hours, and the cells were incubated in a non-serum culture medium Opti-MEM together with a given concentration of each cathepsin purified from rat stomach (References #27 and #60-#62). Thereafter, the kit reagent (10 μl) was added to each well and the wells were incubated for another 1 hour. After incubation, each well was measured at the absorbance of 450 nm with a microplate reader.
# (§1) In the figure, an indicating bar scale represents 50 μm. […] In the figure, an indicating bar scale represents 50 μm.
# In this experiment, the survival rate of the ALVA-41 cells was measured by incubating the cells with cathepsin E of a given concentration in the presence or absence of pepstatin A (100 μM) at 37° C. and pH 7.4 for 20 hours. The data is represented as a percentage with respect to the value for non-treated cell group. The data were obtained as an average value±SD from the data obtained by four separate experiments. […] In this experiment, the HEK293 cells were incubated together with a given concentration of natural cathepsin E, wild-type recombinant and the active site mutant (D98A/D283A) at 37° C. and pH 7.4 for 20 hours. The survival rate of the cells was measured and represented as a percentage with respect to the value of the non-treated cell group. The data represents an average value±SD from the data obtained by four separate experiments. In the value, *p<0.001 is a corresponding value for the cells treated with the mutant. […] In this experiment, ALVA-41 cells were treated solely with cathepsin E of a given concentration in the same manner as for FIG. 2A and the culture supernatant was recovered, followed by centrifuging to remove the precipitate and transferring a portion ([…]) of the supernatant to a freshly prepared culture of ALVA-41 cells. Thereafter, the cells were incubated at 37° C. and pH 7.4 for 20 hours in the absence (black round mark) or presence (white round mark) of pepstatin A (100 μM) and measured for the survival rate of the cells. The cell survival rate is represented as a percentage with respect to the value of the cells treated with the culture supernatant of the ALVA-41 cells treated with physiological saline. The data is represented as an average value±SD from the data obtained by four separate experiments. […] The cathepsin E activity (on the upper panel) and the cytotoxic activity (on the lower panel) of each column fraction were determined using freshly prepared ALVA-41 cells and a cathepsin E-specific substrate. The cell survival rate of each fraction treated with the protein at a given final concentration is represented as a percentage with respect to the value of the cells treated with physiological saline and as an average value±SD from the data obtained by four separate experiments. The cathepsin E activity is represented as a percentage of the total activity in the culture supernatant, and the data is represented as an average±SD from the data obtained by three separate experiments.
# [2] = test system: human leukemia U937 cells; test: survival of human leukemia U937 cells; conditions: sole administration, 10 μg/ml
# [3] = test system: human prostate cancer ALVA-41 cells; test: measurement for apoptosis (morphology, annexin V staining, TUNEL assay), ALVA-41 cells; conditions: for effect of caspase inhibitor on cell death of cancer cells caused by cathepsin E: ALVA-41 cells treated with cathepsin E
# Experimental: The cells were measured for a morphological variation of apoptosis by phase contrast microscopy. The cells of prophase and post-phase apoptosis were detected by annexin V staining and TUNEL assay. In order to carry out the annexin V staining of ALVA-41 cells, the cells were exposed to cathepsin E or cathepsin L for 4 hours and centrifuged. After centrifugation, the separated cells were washed twice with PBS and incubated with fluorescein isothiocyanate-conjugated annexin V for 10 minutes at room temperature in a dark place. The cells that were positive as a result of the annexin V staining were then detected with fluorescence microscope. The TUNEL assay was carried out for the incubated tumor cells using Apop Tag Peroxidase Apoptosis Detection Kit and for heterografts using Tumor TACS In Situ Apoptosis Detection Kit.
# as §1
molecule,measurement,setting,value
"CC(C)CC(=O)N[C@H](C(=O)N[C@H](C(=O)N[C@@H](CC(C)C)[C@@H](O)CC(=O)N[C@@H](C)C(=O)N[C@@H](CC(C)C)[C@@H](O)CC(=O)O)C(C)C)C(C)C [pepstatin A, reference compound] (Isovaleryl-VV[Sta]A[Sta]-OH)",effect on cytotoxicity of cathepsin E against cancer cells,"[1]; added to culture medium of ALVA-41 cells, pepstatin A 100 μM",suppressed
COc1cc([C@@H]2c3cc4c(cc3[C@@H](O[C@@H]3O[C@@H]5CO[C@@H](C)O[C@H]5[C@H](O)[C@H]3O)[C@H]3COC(=O)[C@H]23)OCO4)cc(OC)c1O [etoposide],rate of apoptosis of U937 cells,[2],approximately 40%
cathepsin B,number of living cells,"[1]; neutral pH, 10-100 μg/ml",increased the number of living cells in a concentration-dependent way
cathepsin L,number of living cells,[1]; high concentration range (50-100 μg/ml),decreases the number of the living cells
same,number of living cells,[1]; low concentration (10 μg/ml),increase in the number of these living cells
same,staining with annexin V and TUNEL reagent,"[3]; ALVA-41 cells, 100 μg/ml",negative
same,morphological changes of treated cells,"[3]; ALVA-41 cells, microscopy, 100 μg/ml",necrosis-like morphological changes
"COC(=O)C[C@H](NC(=O)[C@H](C)NC(=O)[C@@H](NC(=O)OCc1ccccc1)C(C)C)C(=O)CF [z-VAD-fmlk, reference compound] (Cbz-Val-Ala-Asp(OMe)-CH2F)",effect of caspase inhibitor on cell death of cancer cells caused by cathepsin E,[3],suppression
cathepsin D,number of living cells,"[1]; neutral pH, 10-100 μg/ml",increased the number of living cells in a concentration-dependent way
DEVD-fmlk [reference compound],effect of caspase inhibitor on cell death of cancer cells caused by cathepsin E,[3],suppression
